# Source: patent US20240307283A1, “COMPOSITIONS AND METHODS FOR DECREASING PIGMENTATION” (The General Hospital Corporation, priority 2021, published 2024)
# Peptide text beside a SMILES is read from it. * marks the point of attachment. Cbz = O=C(OCc1ccccc1)*
# Key:
# mouse B16 melanoma cells = experiment: In vitro depigmentation of B16 melanoma cells; assay type: cell-based; conditions: 2 uM or 10 uM, DMSO-based carrier, 1-5 days (average 1.5 days), FIG. 12A
# Protocol: (§1) The ability of 2 uM or 10 uM ASS, Usnic acid, 4-hexylresorcinol, candesartan, Nigericin, and Ginkgolic acid to depigment was evaluated in mouse B16 melanoma cells and melan-A melanocytes. A DMSO-based carrier solution was used, and the experiments carried out for 1-5 days, with an average of 1.5 days. 4-n-Butylresorcinol, N-Acetylcystein (NAC), and Phenylthiourea (PTU), were used as a positive control, and DMSO as a negative control.
# [1] = test system: mouse melan-A melanocytes; experiment: In vitro depigmentation of melan-A melanocytes; assay type: cell-based; conditions: 2 uM or 10 uM, DMSO-based carrier, 1-5 days (average 1.5 days), FIG. 12B
# Protocol: Murine Melan-A (Bennett et al., 1987) cells were obtained from the Wellcome Trust Functional Genomics Cell Bank. Melan-A cells were grown in RPMI 1640 supplemented with 10% FBS or FetalPlex (Gemini Bio-Products, #100-602), 100,000 U/L penicillin, 100 mg/L streptomycin sulphate, 100× Glutamax, and 200 nM TPA.
# as §1
# [2] = test system: human skin explants (Fitzpatrick skin type 2); experiment: Prevention of UVB-driven pigmentation in human skin explants; assay type: cell-based; conditions: UVB 150 mJ/cm^2
# Protocol: (§2) Skin samples considered surgical waste were obtained de-identified from healthy donors (IRB #2013P000093) undergoing reconstructive surgery, according to institutional regulations. Full thickness human abdominal skin explants were cultured in petri dishes with a solid phase and liquid phase phenol red free DMEM medium containing 20% penicillin/streptomycin/glutamine, 5% fungizone (Gibco), and 10% fetal bovine serum. Compounds were applied strictly on top of the explants, making sure no drip occurred into the underlying media. For UV irradiation experiments, a UV lamp (UV Products) was used at 1000 mJ/cm^2 UVB.
# The ability of a number of NNT activators to prevent UVB-driven pigmentation of skin was evaluated in human skin explants (Fitzpatrick skin type 2) with application of UVB 150 mJ/cm^2. […]
# human skin explants = experiment: Depigmentation of human skin explants by NNT activators; assay type: cell-based; conditions: for ability to depigment skin: after 36 hours, FIGS. 13A-B; for ability to depigment skin / Dose needed to depigment within 36 h (skin type 2): DMSO-based carrier; for Dose needed to depigment within 36 h (skin type 2): single dose or lower end of the dose range
# Protocol: as §2
# The ability of ASS, Usnic acid, 4-hexylresorcinol, candesartan, Nigericin, elaidylphosphocholine, hexitidine, naproxol, and Ginkgolic acid to depigment skin was tested in human skin explants. A DMSO-based carrier solution was used. DMSO was used as a negative control. […]
# tyrosinase = experiment: Cycloheximide chase assay of tyrosinase protein stability; assay type: cell-based, human; conditions: UACC257, 10 μM for 6 h, then CHX
# Protocol: Cycloheximide chase assay: 72 h after siRNA transfection (sicontrol or siNNT), UACC257 melanoma cells were treated with a protein synthesis inhibitor, cyclohexamide (CHX, Sigma Aldrich #C7698, 50 μg/ml), for the indicated times and then immediately subjected to immunoblotting for tyrosinase protein expression. The expression of tyrosinase was quantified using ImageJ software based on band intensities and normalized to the intensities of the corresponding β-actin bands. The normalized tyrosinase expression was then defined as relative tyrosinase expression by setting the mean values at t=0 in each experimental group to 1.0. […] The siRNA-transfected cells were cultured for an additional 48 h in the presence of these agents and then examined by the CHX chase assay as described above. pLJM-1-EGFP or pLJM1-NNT/FLAG was introduced into UACC257 cells using Lipofectamine 3000, 48 after transfection, the transfection medium was replaced with fresh medium containing DMSO or 10 μM MG132 (Sigma Aldrich #M8699) and pre-incubated for 6 h. Then. CHX was added to assess tyrosinase protein stability as described above.
Compound,ability to depigment (mouse B16 melanoma cells),ability to depigment [1],Dose needed to inhibit UVB-induced tanning (skin type 2) [2] [µM],ability to depigment skin (human skin explants),Dose needed to depigment within 36 h (skin type 2) (human skin explants; human skin explants) [µM],lightening by Fontana Masson and H&E staining (human skin explants; FIG. 13C),nuclear capping (human skin explants; FIG. 13C),"Dose needed to depigment within 36 h (skin type 2), result in words (human skin explants; human skin explants)",tyrosinase protein stability in NNT-overexpressing cells (tyrosinase)
CCCCCCc1ccc(O)cc1O [4-hexylresorcinol],depigmenting effects,depigmenting effects,1000,depigmenting effects,5,,,,
"CC(=O)Oc1ccccc1C(=O)O [ASS, Acetylsalicylic Acid]",depigmenting effects,depigmenting effects,10,depigmenting effects,≥ 5,,,,
CCCCCC/C=C\CCCCCCCc1cccc(O)c1C(=O)O [Ginkgolic acid],depigmenting effects,depigmenting effects,100,depigmenting effects,~50,displayed lightening effects,Nuclear capping was present,n.s.,
"CC(C)C[C@@H](C=O)NC(=O)[C@H](CC(C)C)NC(=O)[C@H](CC(C)C)NC(=O)OCc1ccccc1 [MG132, carbobenzoxy-L-leucyl-L-leucyl-L-leucinal] (Cbz-Leu-Leu-Leu-aldehyde)",,,,,,,,,prevented an NNT overexpression-induced decrease in Tyrosinase protein stability
CO[C@@H]1C[C@@H](C[C@H]2CC[C@H](C)[C@H]([C@@H](C)C(=O)O)O2)O[C@]2(O[C@](C)([C@H]3CC[C@@](C)([C@@H]4O[C@@H]([C@H]5O[C@@](O)(CO)[C@H](C)C[C@@H]5C)C[C@@H]4C)O3)C[C@H]2C)[C@@H]1C [Nigericin],depigmenting effects,depigmenting effects,10 to 100,depigmenting effects,5,,,,
"CC(=O)c1c(O)c(C)c(O)c2c1OC1=CC(=O)C(C(C)=O)C(=O)C12C (centres unmarked) [Usnic acid, usnic acid]",,,100,,≥ 5,,,,
"CCOc1nc2cccc(C(=O)O)c2n1Cc1ccc(-c2ccccc2-c2nnn[nH]2)cc1 [candesartan, 1-((2′-(1H-Tetrazol-5-yl)-[1,1′-biphenyl]-4-yl)methyl)-2-ethoxy-1H-benzo[d]imidazole-7-carboxylic acid]",depigmenting effects,depigmenting effects,1000 to 10000,depigmenting effects,≥ 50,,,,
"CCCCCCCC/C=C/CCCCCCCCOP(=O)([O-])OCC[N+](C)(C)C [elaidylphosphocholine, [(E)-octadec-9-eny] 2-(trimethylazaniumyl)ethyl phosphate]",,,,depigmenting effects,,,,,
